We go through two compounds from US20070196434A1, “Methods of preventing or treating sinusitis with oxidative reductive potential water solution” (priority 2006, published 2007).

Read-outs that look alike come from different tables or passages of the source. Bridge positions count the residues as written; N and C are the ends. Square brackets hold non-standard residues; d marks the D form. Peptide text beside a SMILES is read from it. * marks the point of attachment. Ileψ(thiazoline)Cys = CC[C@H](C)[C@H](N)C1=N[C@H](C(=O)*)CS1; dOrn = NCCC[C@@H](N)C(=O)O

The subject of data set [1] is human diploid fibroblasts (HDFs). In kind it is cell-based. The note with it: 880 mM. As for the experimental part:
HP is known to be toxic to eukaryotic cells, increasing apoptosis and necrosis and reducing cellular viability. […] HDF cultures were obtained from three different foreskins, which were pooled and cryopreserved together for the purpose of this study. Only diploid cells were used for all experiments. […] Simultaneous analyses of these parameters were performed in the same cell populations by flow cytometry using: […] B) Annexin V-FITC; and C) Propidium iodide. FIG. 4A-4C disclose percentage values expressed as mean±SD (n=3).

Data set [2] shares this test system. The note with it: 1 month, 5 μM.
Data set [3] deals with human cell cultures.
In data set [4] the test system is Pseudomonas aeruginosa, and Staphylococcus aureus. As to the kind of experiment: Bacterial suspension assay, vegetative bacteria. The data set is classed as cell-based. The note with it: all time points (20 seconds, 5 minutes, 20 minutes) at 20° C.; Bacitracin 33 Units/ml.
The test system of data set [5] is spore suspension of B. atropheus. As to the kind of experiment: Bacterial suspension assay, spores. The data set is classed as cell-based. The note with it: 5, and 20 minute time points at 20° C.; Bacitracin 33 Units/ml. As for the experimental part: Dermacyn is a ready to use product, therefore performing dilutions during testing was not required.
A purchased spore suspension of B. atropheus at 2.5×10^7 /ml was used for testing. In addition fresh suspensions of Pseudomonas aeruginosa, and Staphylococcus aureus were prepared and measured using a spectrophotometer to ensure the titer was acceptable
Nine microliters of test substance was added to 100 ul of microbe suspension. The test mixture was held at 20° C. for the contact times of 20 seconds, 5 minutes, and 20 minutes. 1.0 ml of the test mixture (entire mixture) was added to 9,0 ml of neutralizer for 20 minutes (this is the original neutralization tube or ONT) 1.0 ml of the neutralized test mixture was plated on Tryptic Soy Agar in duplicate for the 5 minute and 20 minute contact times. Additional dilutions and spread plates were used for the 20 second time point, to achieve countable plates.
All plates were incubated at 30° C.-35° C. for a total of 3 days and were evaluated after each day of incubation.

For `OO` [HP, hydrogen peroxide], in data set [1] (5 min), the Cell viability is 55%, the “apoptosis (Annexin-V)” value is listed as 15% and the “necrosis (cells incorporating propidium iodide)” value is 20%. For the same compound, in data set [1] (30 min), the Cell viability came out at 5%, the “apoptosis (Annexin-V)” value came to 20% and the “necrosis (cells incorporating propidium iodide)” value was found to be 75%. Further, the “cells with SA-β-Gal expression” value in data set [2] was determined as 86%. Moreover, in data set [3], the RNA degradation result was “significant RNA degradation”.
`CC[C@H](C)[C@H](N)C1=N[C@H](C(=O)N[C@@H](CC(C)C)C(=O)N[C@H](CCC(=O)O)C(=O)N[C@H](C(=O)N[C@H]2CCCCNC(=O)[C@H](CC(N)=O)NC(=O)[C@@H](CC(=O)O)NC(=O)[C@H](Cc3cnc[nH]3)NC(=O)[C@@H](Cc3ccccc3)NC(=O)[C@H]([C@@H](C)CC)NC(=O)[C@@H](CCCN)NC2=O)[C@@H](C)CC)CS1` [Bacitracin] ({Ileψ(thiazoline)Cys}-L[dE]IK[dOrn]I[dF]H[dD]N; lactam 4-C): the “log reduction of the vegetative bacteria” value in data set [4] was “no evidence of lowering the bacterial or spore populations”. Besides, the “log reduction of spores” value in data set [5] is listed as “no evidence of lowering the bacterial or spore populations”.
